In patent US12422369B2, “Immunosensor” (PPB Technology Pty Ltd, priority 2019, dated 2025):
Several values for one entry are separate records, joined by “and”; a condition that tells them apart may be missing. Equal values may be shown once. Blank lines part the entries; values can stand above or below the molecule they belong to.

Key:
[1] = system: T9NB1-RLuc8; test: BRET^2 competitive assay for TCC with nanobody sensor T9NB1-RLuc8/TCC-4′-S—(CH2)2—CO-GFP^2; format: binding, camelid; settings: 10 nM T9NB1-RLuc8 and 10 nM TCC-4′-S—(CH2)2—CO-GFP^2, 2% DMSO/PBS, 5 minutes at 22° C.
Experimental: Instrumentation: Simultaneous dual emission BRET measurements were carried out with a CLARIOstar microplate reader (BMG LabTech). BRET^2 measurements used the BRET^2 emission filter set comprising RLuc/CLZ400a emission filter (410 nm bandpass, 80 nm) and the GFP^2 emission filter (515 nm bandpass, 30 nm). BRET^2 ratios were calculated as ratios of integrated acceptor emission channel intensity to integrated donor emission channel intensity.
BRET^2 assay: All reactions were carried out in white 96-well plates (Perkin-Elmer, Australia). A final concentration of 10 nM of T9NB1-RLuc8 and 10 nM of TCC-4′-S—(CH2)2—CO-GFP^2 were used for all assays, in a final volume of 100 μL 2% DMSO in PBS.
To construct a calibration curve, 10 nM of T9NB1-RLuc8 and 10 nM of TCC-4′-S—(CH2)2—CO-GFP^2 were incubated for 5 minutes at 22° C. with a range of different final concentrations of TCC, namely 1, 3, 6.3, 12.5, 25, 50, 100 and 200 nM, added from a stock of TCC in DMSO or DMSO only (2% final concentration in PBS). At the end of the incubation time, 1 μL of coelenterazine 400a (1 mM stock) in EtOH was added to the reaction mixture (final [CLZ400a]=10 μM) and the luminescence intensities recorded immediately. The BRET^2 ratios were calculated and are presented as a function of the concentration of TCC in FIG. 8. […]

[2] = system: Anti-FLAG mAb; test: Competitive BRET calibration for FLAG peptide, mAb-24/36-RLuc8 conjugate, Clariostar plate-reader; format: binding; settings: 5 nM mAb-24/36-RLuc8, 10 nM FLAG-GFP^2, 5 minute incubation
Experimental: A calibration was also performed using the Clariostar plate-reader (BMG) and the antibody-24/36-RLuc8 conjugate. Measurements were made in the bioluminescence mode and the dual linear variable filters were set to 410-80 (Gain: 3300) for RLuc8 emission and 515-30 (Gain: 4095) for GFP^2 emission. An integration time of 1.54 s was used. Coelenterazine 400a was prepared by adding 100 μL ethanol to a dried aliquot (0.5 mM), with 1 μL added to the final assay to give a final concentration of 5 μM. A final concentration of 5 nM of RLuc8-conjugate and 10 nM GFP^2-FLAG was used for assays. The final assay volume was 100 μL with PBS (with BSA (1 mg/ml) used to make up the volume.
To construct a standard curve using the Clariostar, 5 nM mAb-24/36-RLuc8 conjugate was added to 10 nM FLAG-GFP^2 in PBS with BSA (1 mg/mL) and the mixture incubated with unlabelled FLAG peptide (various concentrations) for 5 minutes at 28° C. Coelenterazine 400a was added and the BRET response determined. BRET ratio was calculated by dividing the GFP^2 intensity (average 0-13.86 s) by the RLuc8 intensity (average 0-13.86 s). The BRET ratios were normalised using the normalisation function in Graphpad Prism 7 for Windows, plotted against Log [FLAG] values and fitted with a Log [Agonist] vs normalized response—variable slope model.

[3] = target: Anti-FLAG mAb; test: Competitive BRET binding assay for FLAG peptide, antibody-12/36-RLuc8 conjugate, Fluorostar plate-reader; settings: mAb-12/36-RLuc8 50 nM, 200 nM FLAG-GFP^2, Fluorostar
Experimental: In order to determine whether the immunosensors of the present invention can be used to detect and measure the concentration of an analyte, the antibody-12/36-RLuc8 conjugate was incubated with 200 nM FLAG-GFP^2 and varying concentrations of FLAG peptide (from 256 μM to less than 0.5 nM) for 5 minutes before coelenterazine 400a was added and the BRET ratio determined using the Fluorostar plate-reader as described in Example 9. The BRET ratios were plotted against Log [FLAG] values.

[4] = Luciferase activity with Coelenterazine 400a; format: biochemical
Experimental: Luciferase activity: Coelenterazine 400a (Cayman Chemicals) (6-phenyl-2,8-bis(phenylmethyl)-imidazo[1,2-a]pyrazin-3(7H)-one) (1 mg) was dissolved in 10.2 mL ethanol and partitioned into 200 μL aliquots which were dried (Speedivac) and stored at −20° C. until use.
Coelenterazine 400a (50 nmol) was dissolved in 50 μL ethanol and 450 μL water was added. RLuc8 monomer (2.4 mg/mL) and RLuc8 dimer (4.8 mg/mL) were diluted in 1 mg/mL BSA in buffer. In a well of a white 96-well Optiplate (Perkin Elmer) was added TBS, PBS or 100 mM sodium phosphate pH 7.0, 2 μL luciferase enzyme (1/10 or 1/100 dilution) and 5 μL of 0.1 mM Coelenterazine 400a solution. The final volume in each well was 100 μL. The light produced was measured in a FLUOstar Optima (BMG Labtech) using luminescence optics and no filter.

EC50 [1]: 17.3 nM and 17 nM
Molecule: O=C(Nc1ccc(Cl)cc1)Nc1ccc(Cl)c(Cl)c1 [TCC, triclocarban]

EC50 [2]: 1.41 nM
EC50 [3]: 274 nM
Molecule: DYKDDDDK [FLAG peptide]

Luciferase activity, monomer versus dimer ([4]; Coelenterazine 400a, FLUOstar Optima, no filter): more active than the dimeric form
B1: N-His-RLuc8: N-terminal hexahistidine tagged Renilla reniformis luciferase RLuc8-LPETGG, SEQ ID NO: 5 (protein)
chain: MGHHHHHHGTENLYFQGSASKVYDPEQRKRMITGPQWWARCKQMNVLDSFINYYDSEKHAENAVIFLHGNATSSYLWRHVVPHIEPVARCIIPDLIGMGKSGKSGNGSYRLLDHYKYLTAWFELLNLPKKIIFVGHDWGAALAFHYAYEHQDRIKAIVHMESVVDVIESWDEWPDIEEDIALIKSEEGEKMVLENNFFVETVLPSKIMRKLEPEEFAAYLEPFKEKGEVRRPTLSWPREIPLVKGGKPDVVQIVRNYNAYLRASDDLPKLFIESDPGFFSNAIVEGAKKFPNTEFVKVKGLHFLQEDAPDEMGKYIKSFVERVLKNEQLPETGGAALEAS
modifications: N-His-RLuc8
Luciferase activity over time ([4]; after Coelenterazine 400a addition, data not shown): decreased very rapidly (over a few seconds)
